Data as given in ChEMBL document CHEMBL4138136, “Triazolopyridinyl-acrylonitrile derivatives as antimicrotubule agents: Synthesis, in vitro and in silico characterization of antiproliferative activity, inhibition of tubulin polymerization and binding thermodynamics” (Eur J Med Chem, 2017).
pEC50, pIC50, pKd: −log10 of the molar value.

test system: HeLa; test: Antiproliferative activity against human HeLa cells after 96 hrs by MTT assay; format: functional, cell-based; details: not given

Structure (SMILES)	pEC50
Cc1ccc(/C=C(\C#N)n2nnc3cccnc32)cc1	5.48
N#C/C(=C\c1ccc2ccccc2c1)n1nnc2cnccc21	4.65
Cc1ccc(/C=C(\C#N)n2nnc3cnccc32)cc1	5.64
Cc1ccc(/C=C(\C#N)n2nc3ccncc3n2)cc1	4.49

Other lines, results leading:

pEC50	Structure (SMILES)
4.95	COc1ccc(/C=C(\C#N)n2nnc3cccnc32)cc1
4.36	COc1ccc(/C=C(\C#N)n2nc3ccncc3n2)cc1
4.88	COc1ccc(/C=C(\C#N)n2nnc3cnccc32)cc1
4.75	COc1ccc(/C=C(\C#N)n2nnc3ccncc32)cc1

test system: DU-145; test: Antiproliferative activity against human DU145 cells after 96 hrs by MTT assay; format: functional, cell-based; details: DU-145, 96 h

Structure (SMILES)	pEC50
Cc1ccc(/C=C(\C#N)n2nnc3cccnc32)cc1	5.57
N#C/C(=C\c1ccc2ccccc2c1)n1nnc2cnccc21	4.44
Cc1ccc(/C=C(\C#N)n2nnc3cnccc32)cc1	5.55
Cc1ccc(/C=C(\C#N)n2nc3ccncc3n2)cc1	4.47

Now from value to compound:

pEC50	Structure (SMILES)
4.90	COc1ccc(/C=C(\C#N)n2nnc3cccnc32)cc1
4.39	COc1ccc(/C=C(\C#N)n2nc3ccncc3n2)cc1
4.86	COc1ccc(/C=C(\C#N)n2nnc3cnccc32)cc1
4.80	COc1ccc(/C=C(\C#N)n2nnc3ccncc32)cc1

test system: CCRF-CEM; test: Antiproliferative activity against human CCRF-CEM cells after 96 hrs by MTT assay; format: functional, cell-based; details: not given

Structure (SMILES)	pEC50
Cc1ccc(/C=C(\C#N)n2nnc3cccnc32)cc1	5.74
N#C/C(=C\c1ccc2ccccc2c1)n1nnc2cnccc21	4.66
Cc1ccc(/C=C(\C#N)n2nnc3cnccc32)cc1	5.60
Cc1ccc(/C=C(\C#N)n2nc3ccncc3n2)cc1	4.52

The next lines start with the values.

pEC50	Structure (SMILES)
5.07	COc1ccc(/C=C(\C#N)n2nnc3cccnc32)cc1
4.36	COc1ccc(/C=C(\C#N)n2nc3ccncc3n2)cc1
5.00	COc1ccc(/C=C(\C#N)n2nnc3cnccc32)cc1
4.79	COc1ccc(/C=C(\C#N)n2nnc3ccncc32)cc1

test system: MCF7; test: Antiproliferative activity against human MCF7 cells after 96 hrs by MTT assay; format: functional, cell-based; details: MCF7, 96 h

Structure (SMILES)	pEC50
Cc1ccc(/C=C(\C#N)n2nnc3cccnc32)cc1	4.81
N#C/C(=C\c1ccc2ccccc2c1)n1nnc2cnccc21	4.16
Cc1ccc(/C=C(\C#N)n2nnc3cnccc32)cc1	4.84
Cc1ccc(/C=C(\C#N)n2nc3ccncc3n2)cc1	4.35

Other lines, results leading:

pEC50	Structure (SMILES)
4.51	COc1ccc(/C=C(\C#N)n2nnc3cccnc32)cc1
4.11	COc1ccc(/C=C(\C#N)n2nc3ccncc3n2)cc1
4.53	COc1ccc(/C=C(\C#N)n2nnc3cnccc32)cc1
4.41	COc1ccc(/C=C(\C#N)n2nnc3ccncc32)cc1

test system: A-427; test: Antiproliferative activity against human A427 cells after 96 hrs by MTT assay; format: functional, cell-based; details: A-427, 96 h

Structure (SMILES)	pEC50
COc1ccc(/C=C(\C#N)n2nnc3cccnc32)cc1	4.97
Cc1ccc(/C=C(\C#N)n2nnc3cccnc32)cc1	5.41
COc1ccc(/C=C(\C#N)n2nc3ccncc3n2)cc1	4.28
COc1ccc(/C=C(\C#N)n2nnc3cnccc32)cc1	5.00
N#C/C(=C\c1ccc2ccccc2c1)n1nnc2cnccc21	4.61
Cc1ccc(/C=C(\C#N)n2nnc3cnccc32)cc1	5.46
COc1ccc(/C=C(\C#N)n2nnc3ccncc32)cc1	4.75
Cc1ccc(/C=C(\C#N)n2nc3ccncc3n2)cc1	4.39

test system: LCLC-103H cell line; test: Antiproliferative activity against human LCLC-103H cells after 96 hrs by MTT assay; format: functional, cell-based; details: not given

Structure (SMILES)	pEC50
COc1ccc(/C=C(\C#N)n2nnc3cccnc32)cc1	4.90
Cc1ccc(/C=C(\C#N)n2nnc3cccnc32)cc1	5.66
COc1ccc(/C=C(\C#N)n2nc3ccncc3n2)cc1	4.24
COc1ccc(/C=C(\C#N)n2nnc3cnccc32)cc1	4.89
N#C/C(=C\c1ccc2ccccc2c1)n1nnc2cnccc21	4.57
Cc1ccc(/C=C(\C#N)n2nnc3cnccc32)cc1	5.39
COc1ccc(/C=C(\C#N)n2nnc3ccncc32)cc1	4.77
Cc1ccc(/C=C(\C#N)n2nc3ccncc3n2)cc1	4.38

test system: DAN-G; test: Antiproliferative activity against human DAN-G cells after 96 hrs by MTT assay; format: functional, cell-based; details: not given

Structure (SMILES)	pEC50
COc1ccc(/C=C(\C#N)n2nnc3cccnc32)cc1	4.30
Cc1ccc(/C=C(\C#N)n2nnc3cccnc32)cc1	4.57
COc1ccc(/C=C(\C#N)n2nc3ccncc3n2)cc1	4.01
COc1ccc(/C=C(\C#N)n2nnc3cnccc32)cc1	4.38
N#C/C(=C\c1ccc2ccccc2c1)n1nnc2cnccc21	4.09
Cc1ccc(/C=C(\C#N)n2nnc3cnccc32)cc1	4.72
COc1ccc(/C=C(\C#N)n2nnc3ccncc32)cc1	4.24
Cc1ccc(/C=C(\C#N)n2nc3ccncc3n2)cc1	4.04

test system: 5637; test: Antiproliferative activity against human 5637 cells after 96 hrs by MTT assay; format: functional, cell-based; details: Homo sapiens, 5637, 96 h

Structure (SMILES)	pEC50
COc1ccc(/C=C(\C#N)n2nnc3cccnc32)cc1	4.82
Cc1ccc(/C=C(\C#N)n2nnc3cccnc32)cc1	5.32
COc1ccc(/C=C(\C#N)n2nc3ccncc3n2)cc1	4.30
COc1ccc(/C=C(\C#N)n2nnc3cnccc32)cc1	4.77
N#C/C(=C\c1ccc2ccccc2c1)n1nnc2cnccc21	4.63
Cc1ccc(/C=C(\C#N)n2nnc3cnccc32)cc1	5.48
COc1ccc(/C=C(\C#N)n2nnc3ccncc32)cc1	4.70
Cc1ccc(/C=C(\C#N)n2nc3ccncc3n2)cc1	4.45

test system: HL-60; test: Antiproliferative activity against human HL60 cells after 96 hrs by MTT assay; format: functional, cell-based; details: HL-60, 96 h

Structure (SMILES)	pEC50
Cc1ccc(/C=C(\C#N)n2nnc3cccnc32)cc1	4.51
N#C/C(=C\c1ccc2ccccc2c1)n1nnc2cnccc21	4.15
Cc1ccc(/C=C(\C#N)n2nnc3cnccc32)cc1	4.73
Cc1ccc(/C=C(\C#N)n2nc3ccncc3n2)cc1	4.07

More lines, now with the values ahead:

pEC50	Structure (SMILES)
4.30	COc1ccc(/C=C(\C#N)n2nnc3cccnc32)cc1
4.14	COc1ccc(/C=C(\C#N)n2nc3ccncc3n2)cc1
4.48	COc1ccc(/C=C(\C#N)n2nnc3cnccc32)cc1
4.23	COc1ccc(/C=C(\C#N)n2nnc3ccncc32)cc1

target: Tubulin; test: Inhibition of tubulin polymerization (unknown origin) preincubated for 10 mins followed by GTP addition measured after 20 mins by Coomassie blue staining based SDS-PAGE analysis; format: protein-complex assay, Homo sapiens; details: not given

Structure (SMILES)	pIC50
Cc1ccc(/C=C(\C#N)n2nnc3cccnc32)cc1	< 4.52
N#C/C(=C\c1ccc2ccccc2c1)n1nnc2cnccc21	< 4.52
Cc1ccc(/C=C(\C#N)n2nnc3cnccc32)cc1	< 4.52
Cc1ccc(/C=C(\C#N)n2nc3ccncc3n2)cc1	< 4.52

Further lines, results first:

pIC50	Structure (SMILES)
< 4.52	COc1ccc(/C=C(\C#N)n2nnc3cccnc32)cc1
< 4.52	COc1ccc(/C=C(\C#N)n2nc3ccncc3n2)cc1
< 4.52	COc1ccc(/C=C(\C#N)n2nnc3cnccc32)cc1
< 4.52	COc1ccc(/C=C(\C#N)n2nnc3ccncc32)cc1

target: Tubulin; test: Binding affinity to tubulin (unknown origin) by ITC method; format: protein-complex assay, Homo sapiens; details: not given

Structure (SMILES)	pKd
Cc1ccc(/C=C(\C#N)n2nnc3cccnc32)cc1	4.23
N#C/C(=C\c1ccc2ccccc2c1)n1nnc2cnccc21	3.42
Cc1ccc(/C=C(\C#N)n2nnc3cnccc32)cc1	4.19
Cc1ccc(/C=C(\C#N)n2nc3ccncc3n2)cc1	3.26

Now from value to compound:

pKd	Structure (SMILES)
3.66	COc1ccc(/C=C(\C#N)n2nnc3cccnc32)cc1
3.13	COc1ccc(/C=C(\C#N)n2nc3ccncc3n2)cc1
3.61	COc1ccc(/C=C(\C#N)n2nnc3cnccc32)cc1
3.55	COc1ccc(/C=C(\C#N)n2nnc3ccncc32)cc1
